The supplement of paper PMC10307832

Experiments:
Assay in all cases: relative viability (nuclei count vs DMSO), 5 days (fraction); higher = more cells survive
[1] = compound: CC1=NC=CC(=C1)C2=CC=C(C=C2)CC(=O)NC3=CC=C(C=C3)C4=CN=CC=C4 [Wnt-C59] + Cc1nc(Nc2ncc(C(=O)Nc3c(C)cccc3Cl)s2)cc(N2CCN(CCO)CC2)n1 [Dasatinib] (partner 0.075 µM)
Summary of the method: (§1)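 Dosing by pin tool came one day after lung cancer cell lines were seeded in 1536-well plates, using either one drug or a fixed anchor-drug dose plus five library-drug doses (not always all listed) in √10 steps. After 5 days, nuclei were counted on 4× images. Relative viability is treated-well nuclei count divided by vehicle-well nuclei count, and values are medians of duplicate plates.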

[2] = compound: CS(=O)(=O)CCNCc1ccc(-c2ccc3ncnc(Nc4ccc(OCc5cccc(F)c5)c(Cl)c4)c3c2)o1 [Lapatinib] + Cc1nc(NC(=O)N2CCC[C@H]2C(N)=O)sc1-c1ccnc(C(C)(C)C(F)(F)F)c1 [Alpelisib] (partner 2 µM)
Summary of the method: as §1

[3] = compound: CS(=O)(=O)CCNCc1ccc(-c2ccc3ncnc(Nc4ccc(OCc5cccc(F)c5)c(Cl)c4)c3c2)o1 [Lapatinib] + CC(=O)Nc1cccc(-n2c(=O)n(C3CC3)c(=O)c3c(Nc4ccc(I)cc4F)n(C)c(=O)c(C)c32)c1 [Trametinib] (partner 0.02 µM)
Summary of the method: as §1

[4] = compound: CS(=O)(=O)CCNCc1ccc(-c2ccc3ncnc(Nc4ccc(OCc5cccc(F)c5)c(Cl)c4)c3c2)o1 [Lapatinib] + CC1(C)CCC(c2ccc(Cl)cc2)=C(CN2CCN(c3ccc(C(=O)NS(=O)(=O)c4ccc(N[C@H](CCN5CCOCC5)CSc5ccccc5)c(S(=O)(=O)C(F)(F)F)c4)cc3)CC2)C1 [Navitoclax] (partner 0.5 µM)
Summary of the method: as §1

Cell Line	relative viability ([1]; first compound 0.001 µM)	relative viability ([1]; first compound 0.01 µM)	relative viability ([1]; first compound 0.03162 µM)	relative viability ([1]; first compound 0.1 µM)	relative viability ([2]; first compound 0.02 µM)	relative viability ([2]; first compound 0.06325 µM)	relative viability ([2]; first compound 0.2 µM)	relative viability ([2]; first compound 0.6325 µM)	relative viability ([2]; first compound 2 µM)	relative viability ([3]; first compound 0.02 µM)	relative viability ([3]; first compound 0.06325 µM)	relative viability ([3]; first compound 0.2 µM)	relative viability ([3]; first compound 0.6325 µM)	relative viability ([3]; first compound 2 µM)	relative viability ([4]; first compound 0.02 µM)	relative viability ([4]; first compound 0.06325 µM)	relative viability ([4]; first compound 0.2 µM)	relative viability ([4]; first compound 0.6325 µM)	relative viability ([4]; first compound 2 µM)
NCI-H1651	0.385	0.421	0.405	0.447	0.919	0.827	0.897	0.828	0.932	0.856	0.809	0.827	0.806	0.811	1.05	0.968	0.971	0.899	0.906
NCI-H1703	–	–	–	–	0.289	0.33	0.325	0.398	0.343	–	–	–	–	–	0.908	0.943	1.03	1.33	0.996
NCI-H522	0.92	0.752	0.875	0.882	–	–	–	–	–	–	0.636	0.688	0.809	0.655	–	–	–	–	–
HCC-366	0.678	0.621	0.594	0.487	–	0.282	0.381	0.446	0.242	–	0.293	0.253	0.371	0.2	–	1.02	1.08	1.03	0.914
SK-LU-1	0.184	0.187	0.198	0.187	–	0.953	0.99	1.1	0.977	0.377	0.43	0.439	0.557	0.507	–	0.831	0.747	0.876	1.29
NCI-H520	0.217	0.189	0.208	0.174	0.961	0.805	0.912	1.02	0.807	0.692	0.62	0.642	0.845	0.557	0.951	1.06	1.08	1.25	0.972
NCI-H1437	0.378	0.308	0.384	0.495	1	0.869	1.02	0.864	0.866	0.475	0.492	0.498	0.458	0.303	1.09	1.08	1.11	1.03	1
NCI-H460	0.482	0.483	0.524	0.531	0.415	0.362	0.448	0.389	0.4	0.0377	0.0952	0.282	0.171	0.0626	0.966	1.08	1.08	1.11	1.1
LK-2	0.379	0.372	0.268	0.292	–	–	0.938	1.13	1.01	0.858	–	0.782	0.663	0.832	0.908	–	0.84	0.88	0.905
NCI-H358	0.177	0.154	0.145	0.152	0.741	–	0.574	0.414	0.336	0.135	0.108	0.122	0.123	0.121	–	–	–	–	–
NCI-H2085	0.282	0.236	0.269	0.249	0.869	0.845	0.932	1	0.694	0.404	0.56	0.511	0.559	0.452	1.06	0.925	0.987	1.01	0.805
NCI-H2405	0.207	0.232	0.221	0.233	–	0.609	0.733	0.781	0.689	–	0.409	–	0.52	0.438	–	0.769	0.868	0.881	0.72
NCI-H1666	0.803	0.84	0.836	0.795	0.744	0.835	0.671	0.485	0.244	0.722	0.718	0.727	0.674	0.501	0.794	0.724	0.737	0.464	0.217
NCI-H322M	0.266	0.26	0.216	0.228	0.776	0.669	0.808	0.73	0.773	0.493	0.435	0.492	0.508	0.377	1.25	1.07	1.09	1.16	1.09
NCI-H1563	0.456	0.509	0.475	0.468	0.951	0.848	0.795	0.961	0.898	–	–	–	–	–	–	–	–	–	–
IA-LM	–	–	–	–	0.653	0.66	0.76	0.763	0.792	–	–	–	–	–	0.769	0.794	0.817	0.728	0.713
CAL-12T	0.505	0.391	0.475	0.437	1.05	1.26	1.25	1.13	0.417	0.308	0.257	0.313	0.29	0.203	1.18	1.23	1.32	1.03	0.724
NCI-H1395	0.406	0.398	0.423	0.444	–	0.93	1.18	0.978	1.03	–	0.956	1.07	1.06	1.03	–	1.05	1.14	1.62	1.14
NCI-H3122	0.824	0.951	0.893	0.894	0.714	0.725	0.752	0.691	0.771	0.256	0.203	0.207	0.218	0.248	1.01	1	1.01	0.968	1.01
HARA	0.249	0.208	0.293	0.32	0.739	0.573	0.593	0.625	0.288	0.476	0.316	0.331	0.36	0.304	1.13	1.18	1.15	1.08	0.938
EBC-1	–	–	–	–	0.826	0.766	0.889	0.801	0.695	–	–	–	–	–	0.459	0.361	0.457	0.337	0.265
PC-3 [JPC-3]	1.01	1.05	1.13	1.07	–	1.04	1.02	0.988	0.585	–	0.675	–	0.721	0.412	–	0.797	0.779	0.885	0.689

Cell Line	relative viability ([1]; first compound 0.001 µM)	relative viability ([1]; first compound 0.01 µM)	relative viability ([1]; first compound 0.03162 µM)	relative viability ([1]; first compound 0.1 µM)	relative viability ([2]; first compound 0.02 µM)	relative viability ([2]; first compound 0.06325 µM)	relative viability ([2]; first compound 0.2 µM)	relative viability ([2]; first compound 0.6325 µM)	relative viability ([2]; first compound 2 µM)	relative viability ([3]; first compound 0.02 µM)	relative viability ([3]; first compound 0.06325 µM)	relative viability ([3]; first compound 0.2 µM)	relative viability ([3]; first compound 0.6325 µM)	relative viability ([3]; first compound 2 µM)	relative viability ([4]; first compound 0.02 µM)	relative viability ([4]; first compound 0.06325 µM)	relative viability ([4]; first compound 0.2 µM)	relative viability ([4]; first compound 0.6325 µM)	relative viability ([4]; first compound 2 µM)
SK-MES-1	0.393	0.264	0.39	0.337	0.698	–	0.709	0.629	0.33	0.512	0.446	0.425	0.339	0.275	1.13	–	1.25	0.783	0.573
Calu-6	–	–	–	–	0.919	0.93	1.06	1.01	0.894	–	–	–	–	–	0.844	0.812	0.91	0.819	0.764
NCI-H838	0.291	0.29	0.288	0.302	1.05	0.88	1.07	0.967	0.912	0.609	0.436	0.575	0.517	0.483	1.13	1.06	1.16	1.17	1
NCI-H2009	0.31	0.331	0.311	0.311	1.12	1.16	1.16	1.16	1.12	0.266	0.236	0.295	0.294	0.268	1.11	1.21	1.21	1.17	1.14
NCI-H647	0.193	0.166	0.2	0.152	1.01	0.779	1.06	1.14	1.01	0.394	0.42	0.45	0.641	0.224	–	1.14	1.05	1.04	0.963
NCI-H1993	0.601	–	0.631	0.631	0.683	–	0.721	0.684	0.665	0.458	–	0.57	0.496	0.477	0.831	–	0.618	0.69	0.51
LCLC-97TM1	0.764	0.75	0.772	0.889	–	–	0.232	0.284	0.257	–	0.131	0.205	0.181	0.137	–	–	0.355	0.327	0.33
EKVX	0.575	0.511	0.527	0.451	0.869	0.675	0.845	0.575	0.212	–	0.29	0.315	0.249	0.147	0.859	0.916	0.809	0.77	0.199
A549	–	–	–	–	0.609	0.528	0.755	0.665	0.516	–	–	–	–	–	1.12	1.13	1.22	1.21	1.21
HCC-44	–	–	–	–	0.689	0.621	0.75	0.873	0.535	1.03	1.05	1.16	1.04	0.807	0.874	0.89	0.995	0.949	0.768
NCI-H1650	0.302	0.333	0.309	0.322	–	–	–	–	–	0.568	0.516	0.514	0.46	0.444	1.06	1.11	1.24	1.01	0.761
NCI-H1648	–	–	–	–	–	–	–	–	–	–	0.307	0.256	0.339	0.233	–	–	–	–	–
SW 900	0.545	0.708	0.768	0.624	–	–	–	–	–	–	0.829	0.785	0.771	0.689	–	–	–	–	–
LCLC-103H	0.509	0.471	0.493	0.516	–	0.882	0.924	0.848	0.92	0.659	0.641	0.664	0.668	0.631	–	–	–	–	–
NCI-H2342	0.326	0.326	0.358	0.337	–	–	–	–	–	0.706	0.722	0.65	0.676	0.629	–	–	–	–	–
NCI-H1623	0.507	0.488	0.572	0.625	–	–	–	–	–	–	–	–	–	–	–	–	–	–	–
ABC-1	0.509	0.605	0.506	0.592	–	1.06	1.23	0.88	0.838	–	–	–	–	–	–	–	–	–	–
NCI-H650	0.43	0.512	0.457	0.526	–	1.04	0.998	0.953	1.2	–	0.78	0.965	0.955	0.927	–	–	–	–	–
NCI-H661	0.914	0.736	0.907	0.872	0.646	0.637	0.468	0.45	0.36	0.509	0.536	0.549	0.432	0.388	–	–	–	–	–
NCI-H1299	–	–	–	–	1.06	1.08	1.11	1.03	1.04	–	–	–	–	–	1.05	1.06	1.05	1.01	1.06
ChaGo-K-1	0.659	0.606	0.65	0.606	–	–	–	–	–	0.868	0.918	0.9	0.868	0.894	–	1.15	0.781	0.99	0.457
